Assay results as given in the NIST ThermoML archive (doi:10.1021/je0502593).

What was measured:
[1] = 101.33 kPa, Liquid, Capillary tube (Ostwald / Ubbelohde) method
[2] = xn = mol fraction of the nth substance listed; conditions: 101 kPa, Liquid, Capillary tube (Ostwald / Ubbelohde) method, x1 = 0.364

CC1CCCCC1 [methylcyclohexane]
[1]
Conditions | viscosity [mPa·s]
298.61 K | 0.7341
303.63 K | 0.6844
308.95 K | 0.636
317.71 K | 0.5669
323.66 K | 0.5268
328.77 K | 0.4964
333.69 K | 0.469

FC(F)(F)C1(F)C(F)(F)C(F)(F)C(F)(F)C(F)(F)C1(F)F [perfluoro(methylcyclohexane)]
[1]
Conditions | viscosity [mPa·s]
319.2 K | 1.031
320.16 K | 1.011
323.18 K | 0.9582
328.13 K | 0.8787
333.11 K | 0.8074

FC(F)(F)C1(F)C(F)(F)C(F)(F)C(F)(F)C(F)(F)C1(F)F [perfluoro(methylcyclohexane)] + CC1CCCCC1
[2]
Conditions | viscosity [mPa·s]
320.16 K | 0.7472
320.19 K | 0.728
320.34 K | 0.689
320.5 K | 0.6723
320.74 K | 0.6544
321 K | 0.6428
321.39 K | 0.6292
321.96 K | 0.6151
322.62 K | 0.6018
324.05 K | 0.5798
325.5 K | 0.5617
326.98 K | 0.5452
328.41 K | 0.5313
330.08 K | 0.517
331.6 K | 0.5034
333.21 K | 0.4923
334.85 K | 0.4806
336.69 K | 0.4679
338.48 K | 0.4558
340.38 K | 0.4438
